Converted amounts (≈) assume the structure as drawn. Where only a bound is given, the exact number is not on record here.

By solubility is commonly meant the concentration that dissolves in the medium under given conditions. A low value points to a poorly soluble substance. The term EC50 denotes the concentration needed to bring the measured effect to its halfway point. For orientation: IC50 means the concentration needed to halve the response being measured. A high value points to lower potency.

A short description of data set [1]: Aqueous solubility of compound in fasted state simulated intestinal fluid (FaSSIF) at pH 6.6. In kind it is physicochemical.
For data set [2], the system named is Human immunodeficiency virus 1. Put plainly: In vitro antiviral activity against HIV1 subtype C clinical isolate 97ZA009. It counts as functional, organism-based. The following applies: Human immunodeficiency virus 1, 97ZA009.
Data set [3] concerns Human immunodeficiency virus 1. Briefly: In vitro antiviral activity against fully replicating pseudotype HIV1 harboring Gag A364V mutant assessed as maximum percent inhibition by single cycle assay relative to control. In kind it is functional.
The subject of data set [4] is Human immunodeficiency virus 1. Briefly: In vitro antiviral activity against fully replicating pseudotype HIV1 harboring Gag T332S/[…]/prR41G mutant by single cycle assay. It counts as functional, organism-based.
Data set [5] relates to Human immunodeficiency virus 1. Put plainly: In vitro antiviral activity against HIV1 subtype A clinical isolate UG275. In kind it is functional, organism-based. The following applies: Human immunodeficiency virus 1, UG275.
The nature of data set [6]: Aqueous solubility of compound. It counts as physicochemical. The settings on record: buffer.
For data set [7], the system named is Human immunodeficiency virus 1. Briefly: In vitro antiviral activity against fully replicating pseudotype HIV1 harboring Gag V370A mutant by single cycle assay. It counts as functional, organism-based.
The nature of data set [8]: Elimination half life in mouse at 1 mg/kg, iv. It counts as ADME, organism-based. The following applies: in vivo, read-out: beta t1/2 (converted).
A short description of data set [9]: Metabolic stability in human liver microsomes assessed as half life. It counts as ADME, Microsome. A general note: Liver microsomes are vesicles of endoplasmic reticulum, rich in cytochrome P450 enzymes.
Data set [10] has as its system Human immunodeficiency virus 1. Put plainly: In vitro antiviral activity against fully replicating pseudotype HIV1 harboring Gag deltaV370 mutant assessed as maximum percent inhibition by single cycle assay relative to control. In kind it is functional.
A further data set addresses T1, Cytochrome P450 2C8 (Homo sapiens, UniProt P10632).
T1 sequence (P10632 whole entry): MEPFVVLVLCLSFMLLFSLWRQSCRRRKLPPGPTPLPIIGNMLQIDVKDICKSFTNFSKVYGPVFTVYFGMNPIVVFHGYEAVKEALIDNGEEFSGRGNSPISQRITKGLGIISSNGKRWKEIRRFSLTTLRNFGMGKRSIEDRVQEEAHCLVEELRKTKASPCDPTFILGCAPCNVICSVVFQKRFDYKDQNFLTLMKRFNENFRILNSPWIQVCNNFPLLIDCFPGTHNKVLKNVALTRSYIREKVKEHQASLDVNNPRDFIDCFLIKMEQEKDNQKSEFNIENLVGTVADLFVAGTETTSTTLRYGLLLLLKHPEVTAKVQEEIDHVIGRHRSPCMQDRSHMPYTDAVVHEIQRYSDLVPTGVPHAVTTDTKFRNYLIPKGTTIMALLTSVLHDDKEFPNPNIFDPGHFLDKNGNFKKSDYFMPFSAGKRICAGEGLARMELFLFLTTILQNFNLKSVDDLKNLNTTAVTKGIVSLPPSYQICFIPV
Put plainly: Inhibition of CYP2C8 (unknown origin). In kind it is ADME.

Take `C=C(C)[C@@H]1CC[C@]2(NCCN3CCS(=O)(=O)CC3)CC[C@]3(C)[C@H](CC[C@@H]4[C@@]5(C)CC=C(C6=CC[C@](COc7ncccc7C#N)(C(=O)O)CC6)C(C)(C)[C@@H]5CC[C@]43C)[C@@H]12`: the solubility in data set [1] is 19 mg/mL (≈ 23 mM); in data set [6] it was under 1 mg/mL. Besides, the 50% effective concentration (EC50) worked out at 5 nM in data set [2], 24 nM in data set [4], 2 nM in [5] and 6 nM in data set [7]. Moreover, the Imax in [3] came out at 57%; in data set [10], 100%. Further, the half-life in [8] is 10.9 h; in data set [9] it was over 2 h. Besides, the IC50 at Cytochrome P450 2C8 was over 4400 nM.

The values above are taken from ChEMBL document CHEMBL6071211, “Invention of VH-937, a Potent HIV-1 Maturation Inhibitor with the Potential for Infrequent Oral Dosing in Humans” (ACS Med Chem Lett, 2024).
